From PubChem BioAssay AID248 (DTP/NCI, 2004)
“And” between values parts separate entries of the source, which are not always exact repeats. Identical values can stand only once. Toxic doses and inconclusive results are not listed. Rule as the data show it: active = T/C of 150% or more; inactive = T/C below 125%.

Tested on: L1210 leukemia ip in BDF1 mice, survival T/C
Test: NCI In Vivo Anticancer Drug Screen. Data for tumor model L1210 Leukemia (intraperitoneal) in B6D2F1 (BDF1) mice
Conditions: endpoint: mean survival time, higher = longer survival
How it was run: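 Read-out is survival time, reported as the treated-group measurement over the vehicle-control measurement.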

[1] = dose: 100.0 mg/kg/injection, schedule: Q04DX003 (ip), vehicle: Klucel (hydroxypropylcellulose) (HPC)
[2] = dose: 200.0 mg/kg/injection, schedule: Q04DX003 (ip), vehicle: Klucel (hydroxypropylcellulose) (HPC)
[3] = dose: 400.0 mg/kg/injection, schedule: Q04DX003 (ip), vehicle: Klucel (hydroxypropylcellulose) (HPC)
[4] = dose: 100.0 mg/kg/injection, schedule: Q01DX001 (ip), vehicle: carboxymethylcellulose (CMC)
[5] = dose: 200.0 mg/kg/injection, schedule: Q01DX001 (ip), vehicle: carboxymethylcellulose (CMC)
[6] = dose: 400.0 mg/kg/injection, schedule: Q01DX001 (ip), vehicle: carboxymethylcellulose (CMC)
[7] = dose: 50.0 mg/kg/injection, schedule: Q04DX003 (ip), vehicle: saline
[8] = dose: 100.0 mg/kg/injection, schedule: Q04DX003 (ip), vehicle: saline with Tween-80
[9] = dose: 100.0 mg/kg/injection, schedule: Q04DX003 (ip), vehicle: saline
[10] = dose: 200.0 mg/kg/injection, schedule: Q04DX003 (ip), vehicle: saline
[11] = dose: 100.0 mg/kg/injection, schedule: Q01DX001 (ip), vehicle: saline
[12] = dose: 200.0 mg/kg/injection, schedule: Q01DX001 (ip), vehicle: saline
[13] = dose: 200.0 mg/kg/injection, schedule: Q04DX003 (ip), vehicle: saline with Tween-80
[14] = dose: 400.0 mg/kg/injection, schedule: Q04DX003 (ip), vehicle: saline with Tween-80
[15] = dose: 400.0 mg/kg/injection, schedule: Q01DX001 (ip), vehicle: saline
[16] = dose: 100.0 mg/kg/injection, schedule: Q01DX009 (ip), vehicle: saline with Tween-80
[17] = dose: 100.0 mg/kg/injection, schedule: Q04DX002 (ip), vehicle: saline with Tween-80
[18] = dose: 200.0 mg/kg/injection, schedule: Q01DX009 (ip), vehicle: saline with Tween-80
[19] = dose: 200.0 mg/kg/injection, schedule: Q04DX002 (ip), vehicle: saline with Tween-80
[20] = dose: 400.0 mg/kg/injection, schedule: Q04DX002 (ip), vehicle: saline with Tween-80
[21] = dose: 100.0 mg/kg/injection, schedule: Q01DX009 (ip), vehicle: Klucel (hydroxypropylcellulose) (HPC)
[22] = dose: 200.0 mg/kg/injection, schedule: Q01DX009 (ip), vehicle: Klucel (hydroxypropylcellulose) (HPC)

Measured: T/C

Cc1c(C)c2c(C(=O)O)c3ccccc3nc2c2ccccc12
inactive: dose: 50.0 mg/kg/injection, schedule: Q01DX001 (ip), vehicle: alcohol 96 % of control | dose: 100.0 mg/kg/injection, schedule: Q01DX001 (ip), vehicle: alcohol 102 % of control | dose: 200.0 mg/kg/injection, schedule: Q01DX001 (ip), vehicle: alcohol 92 % of control | dose: 400.0 mg/kg/injection, schedule: Q01DX001 (ip), vehicle: alcohol 105 % of control

Oc1ccccc1CNc1ccccc1
inactive: [1] 96 % of control | [2] 94 % of control | [3] 96 % of control

CC1([CH2][Hg][Cl])Cc2ccccc2O1 (centres undefined)
inactive: dose: 6.25 mg/kg/injection, schedule: Q04DX003 (ip), vehicle: saline with Tween-80 96 % of control

Nc1c(Cl)ncn2c(=O)n(Cc3ccccc3)nc12
inactive: [4] 96 % of control | [5] 105 % of control | [6] 105 % of control

CC(=O)n1cc(F)c(=O)[nH]c1=O
inactive: dose: 2.1 mg/kg/injection, schedule: Q01DX009 (ip), vehicle: saline with Tween-80 108 % of control | dose: 3.1 mg/kg/injection, schedule: Q01DX009 (ip), vehicle: saline with Tween-80 111 % of control | dose: 6.25 mg/kg/injection, schedule: Q04DX003 (ip), vehicle: saline 108 % of control | dose: 12.5 mg/kg/injection, schedule: Q04DX003 (ip), vehicle: saline 115 % of control | dose: 25.0 mg/kg/injection, schedule: Q04DX003 (ip), vehicle: saline 123 % of control | dose: 100.0 mg/kg/injection, schedule: Q01DX009 (ip), vehicle: saline 101 % of control | [10] 113 % of control
active: dose: 25.0 mg/kg/injection, schedule: Q01DX009 (ip), vehicle: saline 152 % of control | [7] 151 % of control | [8] 188 % of control | [9] 207 % of control | dose: 150.0 mg/kg/injection, schedule: Q01DX001 (ip), vehicle: saline 152 % of control | dose: 300.0 mg/kg/injection, schedule: Q01DX001 (ip), vehicle: saline 151 % of control

O=C(C=Nc1ccc([N+](=O)[O-])cc1)c1c2ccccc2cc2ccccc12
inactive: dose: 100.0 mg/kg/injection, schedule: Q01DX001 (ip), vehicle: Klucel (hydroxypropylcellulose) (HPC) 107 % of control | dose: 200.0 mg/kg/injection, schedule: Q01DX001 (ip), vehicle: Klucel (hydroxypropylcellulose) (HPC) 102 % of control | dose: 400.0 mg/kg/injection, schedule: Q01DX001 (ip), vehicle: Klucel (hydroxypropylcellulose) (HPC) 106 % of control

O=C1c2cc(Br)ccc2-c2ccc(Br)cc21
inactive: dose: 50.0 mg/kg/injection, schedule: Q01DX001 (ip), vehicle: saline 90 % of control | [11] 100 % of control | [12] 90 % of control

CCOP1(=O)NC(=O)C=C(C)N1 (centres undefined)
inactive: dose: 60.0 mg/kg/injection, schedule: Q04DX002 (ip), vehicle: sodium bicarbonate 102 % of control | dose: 120.0 mg/kg/injection, schedule: Q04DX002 (ip), vehicle: sodium bicarbonate 97 % of control

CC(=O)OCC1OC([S][Sb]([CH3])[CH3])C(OC(C)=O)C(OC(C)=O)C1OC(C)=O (centres undefined)
inactive: dose: 12.5 mg/kg/injection, schedule: Q01DX009 (ip), vehicle: Klucel (hydroxypropylcellulose) (HPC) 96 % of control | dose: 25.0 mg/kg/injection, schedule: Q01DX009 (ip), vehicle: Klucel (hydroxypropylcellulose) (HPC) 102 % of control | dose: 50.0 mg/kg/injection, schedule: Q01DX009 (ip), vehicle: Klucel (hydroxypropylcellulose) (HPC) 93 % of control

CC1(C)C(=O)C=C(c2ccccc2)C1(O)c1ccccc1 (centres undefined)
inactive: [8] 99 % of control | [13] 96 % of control | [14] 96 % of control

NC(CS)C(=O)O (centres undefined) (tested in a mixture with another compound)
inactive: [11] 108 % of control | [12] 92 % of control | [15] 89 % of control

O=CC(O)C(O)C(OC1OC(CO)C(O)C(O)C1O)C(O)CO (centres undefined) (tested in a mixture with another compound)
inactive: dose: 75.0 mg/kg/injection, schedule: Q01DX009 (ip), vehicle: carboxymethylcellulose (CMC) 105 % of control | dose: 100.0 mg/kg/injection, schedule: Q01DX001 (ip), vehicle: saline with Tween-80 94 % of control and 98 % of control | dose: 100.0 mg/kg/injection, schedule: Q01DX009 (ip), vehicle: carboxymethylcellulose (CMC) 98 % of control | [16] 94 % of control | [17] 108 % of control [middle of 4 runs] | [8] 97 % of control and 108 % of control | dose: 150.0 mg/kg/injection, schedule: Q01DX009 (ip), vehicle: carboxymethylcellulose (CMC) 105 % of control | dose: 200.0 mg/kg/injection, schedule: Q01DX001 (ip), vehicle: saline with Tween-80 98 % of control and 105 % of control | dose: 200.0 mg/kg/injection, schedule: Q01DX009 (ip), vehicle: carboxymethylcellulose (CMC) 105 % of control | [18] 100 % of control | [19] 97 % of control [middle of 4 runs] | [13] 91 % of control and 92 % of control | dose: 300.0 mg/kg/injection, schedule: Q01DX009 (ip), vehicle: carboxymethylcellulose (CMC) 100 % of control | dose: 400.0 mg/kg/injection, schedule: Q01DX001 (ip), vehicle: saline with Tween-80 93 % of control and 92 % of control | dose: 400.0 mg/kg/injection, schedule: Q01DX009 (ip), vehicle: carboxymethylcellulose (CMC) 96 % of control | [20] 96 % of control and 92 % of control and 94 % of control | [14] 101 % of control and 92 % of control

COCC(=O)C(C(C)=O)C(c1ccc(N(C)C)cc1)C(C(C)=O)C(=O)COC (centres undefined)
inactive: [8] 98 % of control | [13] 89 % of control | [14] 91 % of control

CCCS(=O)(=O)N1CCCCCC1
inactive: [17] 92 % of control | [19] 92 % of control | [20] 92 % of control

CCc1ccc(N=Nc2ccc(Br)cc2)cc1
inactive: [4] 93 % of control | [5] 98 % of control | [6] 98 % of control

NC(=S)N/N=C/c1c[nH]c2ccccc12
inactive: [21] 95 % of control | [1] 87 % of control | [22] 97 % of control | [2] 96 % of control | [3] 94 % of control

CCC1C(=O)OC2OC(c3ccccc3)(c3ccccc3)NC21 (centres undefined)
inactive: [4] 88 % of control | [5] 88 % of control | [6] 90 % of control

NC(N)=N/N=C/c1cccc(Cl)c1
inactive: dose: 3.75 mg/kg/injection, schedule: Q01DX Z (ip), vehicle: saline 92 % of control | dose: 7.5 mg/kg/injection, schedule: Q01DX Z (ip), vehicle: saline 94 % of control | dose: 15.0 mg/kg/injection, schedule: Q01DX Z (ip), vehicle: saline 94 % of control | dose: 15.0 mg/kg/injection, schedule: Q01DX Z (oral), vehicle: saline 98 % of control | dose: 30.0 mg/kg/injection, schedule: Q01DX Z (ip), vehicle: saline 100 % of control | dose: 30.0 mg/kg/injection, schedule: Q01DX Z (oral), vehicle: saline 98 % of control | dose: 60.0 mg/kg/injection, schedule: Q01DX Z (oral), vehicle: saline 98 % of control | dose: 120.0 mg/kg/injection, schedule: Q01DX Z (oral), vehicle: saline 102 % of control

CN1/C(=C/C=N/NC(N)=S)C(C)(C)c2ccccc21
inactive: [4] 102 % of control | [5] 98 % of control | [6] 98 % of control

[N-]=[N+]=Nc1ccc(C(=O)NCc2cnc(N)nc2N)cc1
inactive: [17] 98 % of control

O=C(O)CCc1ccccc1
inactive: [7] 98 % of control | [16] 92 % of control | [9] 104 % of control | [18] 95 % of control | [10] 95 % of control | dose: 400.0 mg/kg/injection, schedule: Q01DX009 (ip), vehicle: saline with Tween-80 86 % of control | dose: 400.0 mg/kg/injection, schedule: Q04DX003 (ip), vehicle: saline 98 % of control

COc1ccccc1C(=O)P(=O)(OC)OC
inactive: [11] 104 % of control | [12] 93 % of control | [15] 95 % of control

N/C(=N\OC(=O)Nc1ccc(Cl)cc1)C(Cl)(Cl)Cl
inactive: [21] 94 % of control | [22] 90 % of control
